According to US9278991B2, “Anhydrous polymorphs of [(2R,3S,4R,5R)-5-(6-(cyclopentylamino)-9H-purin-9-yl)-3,4-dihydroxytetrahydrofuran-2-yl)} methyl nitrate and processes of preparation thereof” (Inotek Pharmaceuticals Corporation, priority 2012, dated 2016):
Blank lines part the entries; values can stand above or below the compound they belong to.

Assays:
Type in all cases: physicochemical
[1] = Long term stability and particle size growth of cured (A2) aqueous formulation lots at 5 and 25 degrees Celsius; conditions: aqueous suspension, 6 month period at either 5° C. or 25° C.
Procedure: (§1) The particle size analyses were performed on a Cilas 1180 Particle Size Analyzer. The parameters used were liquid mode, sample refractive index=1.62 (determined using Cargille immersion oils), liquid refractive index=1.333 (value for water), 30 second measurement, 180 rpm stifling, 120 rpm pump circulation, no sonication, 5 repeat measurements.
A batch of sterile material of Compound A was prepared as described above under the “Synthesis of Compound A”. The resulting Compound A material was then sterilized with gamma irradiation at up to 40 kGray and then formulated into the following aqueous formulations: […]
Various concentrations of Compound A formulation lots were prepared from 0.152, 0.30, 0.61, 0.91, 2.42, 0.46, 0.76%, W/V to provide for the ability to deliver different levels of Compound A per drop of formulation. For example one drop of the 0.152%, W/V of compound A would deliver 50 mcg per drop, 0.30%, W/V would deliver 100 mcg per drop, right through to 0.76% W/V delivering 250 mcg per drop. The formulation lots were then heated to undergo the curing step and convert the A1 polymorph form of Compound A to the A2 polymorph form of Compound A. The curing step was undertaken by placing the formulation lots at 40 degrees C. for 48 hours and then reverting the formulations lots to the desired longer term storage conditions for stability studies. […]

[2] = Curing (ripening) of Compound A aqueous suspension at 40 degrees C: conversion of form A1 to A2, followed by particle size, XRPD and microphotography
Procedure: XRPD patterns were obtained using a high-throughput XRPD set-up. The plates were mounted on a Bruker GADDS diffractometer equipped with a Hi-Star area detector. The XRPD platform was calibrated using Silver Behenate for the long d-spacings and Corundum for the short d-spacings.
Data collection was carried out at room temperature using monochromatic CuKα radiation in the 2-theta region between 1.5 degrees and 41.5 degrees, which is the most distinctive part of the XRPD pattern between the polymorph forms. The diffraction pattern of each well was collected in 2 theta ranges (1.5 degrees≦2 theta≦21.5 degrees for the first frame, and 19.5 degrees≦2 theta≦41.5 degrees for the second) with an exposure time of 30 seconds for each frame. No background subtraction or curve smoothing was applied to the XRPD patterns. The carrier material used during XRPD analysis was transparent to X-rays and contributed only slightly to the background.
As described above the Form A1 can be obtained predominantly via recrystallization from ethanol or under slow evaporation conditions. It has also been established that ripening or curing of Compound A particles suspended in an aqueous suspension formulated for ocular delivery at 40 degrees C. for a relatively short period of time formed polymorph form A2 from polymorph form A1. The aqueous suspension samples were kept at 40 degrees C. for up to 108 hours and monitored by particle size measurement, XRPD and microphotography. […] XRPD analyses indicated a change in polymorph content from about 74% A1 to 26% A2 at time zero to 0% A1 to 100% A2 at 108 hours at 40 degrees C. […] Also, habit changes coupled with A2 growth were reflected in the XRPD patterns and could be monitored by a difference in selected peak intensities from planes within the crystal lattice perpendicular to the c axis that change in intensity as the habit of the crystal changes.
as §1

[3] = Storage of aqueous suspension ocular formulation containing Compound A in the A1 polymorph at 2-8° C
Procedure: When the aqueous suspension ocular formulation containing Compound A in the A1 polymorph is stored at 2-8° C., a temperature required to limit decomposition of Compound A over long term storage, the habit of the suspended particles changes slowly over a period of 6 to 12 months. During this time the small irregular particles of suspended drug change to rod-like habits, with many particles having a length along the longest dimension over 100 microns.

changes to particle habit, size or polymorph content on storage [1]: limit any further changes
SMILES: O=[N+]([O-])OC[C@H]1O[C@@H](n2cnc3c(NC4CCCC4)ncnc32)[C@H](O)[C@@H]1O [Form A2]

average particle size change ([2]; 40 degrees C, after 15 hours to 108 hours): remained effectively constant | time over which XRPD peak intensity differences (crystal habit) changed ([2]; 40 degrees C, constant thereafter): up to 9 hours | average particle size change ([2]; 40 degrees C, over 15 hours): increased significantly | polymorph content A1 (XRPD) ([2]; 108 hours at 40 degrees C): 0% | polymorph content A2 (XRPD) ([2]; 108 hours at 40 degrees C): 100% | polymorph content A1 (XRPD) ([2]; time zero): about 74% | polymorph content A2 (XRPD) ([2]; time zero): ~26%
SMILES: O=[N+]([O-])OC[C@H]1O[C@@H](n2cnc3c(NC4CCCC4)ncnc32)[C@H](O)[C@@H]1O [Compound A, [2R,3S,4R,5R)-5-(6-(cyclopentylamino)-9H-purin-9-yl)-3,4-dihydroxytetrahydrofuran-2-yl)] methyl nitrate]

resuspendability by sonication and shaking ([3]; aqueous suspension after habit change at 2-8° C): much more difficult to resuspend | particle length along the longest dimension (many particles) ([3]; aqueous suspension stored at 2-8° C, 6 to 12 months): over 100 microns
SMILES: O=[N+]([O-])OC[C@H]1O[C@@H](n2cnc3c(NC4CCCC4)ncnc32)[C@H](O)[C@@H]1O [Form A1]
